Laboratory results published in ChEMBL document CHEMBL1141654, “Protective effects of amide constituents from the fruit of Piper chaba on D-galactosamine/TNF-alpha-induced cell death in mouse hepatocytes” (2008).

Legend:
Assay type in all cases: functional
Hepatocyte [1] = test: Inhibition of D-galactosamine/TNFalpha-induced cell death in ddY mouse hepatocytes at 30 uM after 20 hrs by MTT assay
Hepatocyte [2] = test: Inhibition of D-galactosamine/TNFalpha-induced cell death in ddY mouse hepatocytes at 3 uM after 20 hrs by MTT assay
Hepatocyte [3] = test: Inhibition of D-galactosamine/TNFalpha-induced cell death in ddY mouse hepatocytes at 10 uM after 20 hrs by MTT assay
Hepatocyte [4] = test: Inhibition of D-galactosamine/TNFalpha-induced cell death in ddY mouse hepatocytes at 1 uM after 20 hrs by MTT assay
Mus musculus [5] = test: Inhibition of D-galactosamine/LPS-induced liver injury in ddY mouse assessed as serum GOT level at 10 mg/kg, po
Mus musculus [6] = test: Inhibition of D-galactosamine/LPS-induced liver injury in ddY mouse assessed as serum GPT level at 10 mg/kg, po
Mus musculus [7] = test: Inhibition of D-galactosamine/LPS-induced TNFalpha level in ddY mouse serum at 10 mg/kg, po by ELISA
Hepatocyte [8] = test: Inhibition of D-galactosamine/TNFalpha-induced cell death in ddY mouse hepatocytes assessed as cell viability at 10 uM after 20 hrs by MTT assay; settings: read-out: Activity
Mus musculus [9] = test: Inhibition of D-galactosamine/LPS-induced TNFalpha level in ddY mouse serum at 5 mg/kg, po by ELISA
L929 [10] = test: Inhibition of TNF-alpha-induced cell death in […] assessed as cell viability at 100 uM after 20 hrs by MTT assay; settings: L929, 20 h, read-out: Activity
L929 [11] = test: Inhibition of TNF-alpha-induced cell death in […] assessed as cell viability at 30 uM after 20 hrs by MTT assay; settings: L929, 20 h, read-out: Activity
Mus musculus [12] = test: Inhibition of D-galactosamine/LPS-induced liver injury in ddY mouse assessed as serum GOT level at 2.5 mg/kg, po
Mus musculus [13] = test: Inhibition of D-galactosamine/LPS-induced liver injury in ddY mouse assessed as serum GPT level at 2.5 mg/kg, po
Hepatocyte [14] = test: Inhibition of D-galactosamine/TNFalpha-induced cell death in ddY mouse hepatocytes assessed as cell viability at 30 uM after 20 hrs by MTT assay; settings: read-out: Activity
Hepatocyte [15] = test: Inhibition of D-galactosamine-induced cell death in ddY mouse hepatocytes assessed as cell viability at 100 uM after 44 hrs by MTT assay; settings: read-out: Activity
Mus musculus [16] = test: Inhibition of D-galactosamine/LPS-induced liver injury in ddY mouse assessed as serum GOT level at 5 mg/kg, po
Hepatocyte [17] = test: Inhibition of D-galactosamine/TNFalpha-induced cell death in ddY mouse hepatocytes assessed as cell viability at 100 uM after 20 hrs by MTT assay; settings: read-out: Activity
Mus musculus [18] = test: Inhibition of D-galactosamine/LPS-induced TNFalpha level in ddY mouse serum at 20 mg/kg, po by ELISA
Hepatocyte [19] = test: Inhibition of D-galactosamine-induced cell death in ddY mouse hepatocytes assessed as cell viability at 10 uM after 44 hrs by MTT assay; settings: read-out: Activity
Hepatocyte [20] = test: Inhibition of D-galactosamine-induced cell death in ddY mouse hepatocytes assessed as cell viability at 30 uM after 44 hrs by MTT assay; settings: read-out: Activity
L929 [21] = test: Inhibition of TNF-alpha-induced cell death in […] assessed as cell viability at 10 uM after 20 hrs by MTT assay; settings: L929, 20 h, read-out: Activity
Mus musculus [22] = test: Inhibition of D-galactosamine/LPS-induced liver injury in ddY mouse assessed as serum GPT level at 5 mg/kg, po

SMILES: CCC(C)CNC(=O)/C=C/C=C/c1ccc2c(c1)OCO2 (stereo not given) [PIPERCHABAMIDE E]
- inhibition at 30 µM (Hepatocyte [1]): 98%
- inhibition at 3 µM (Hepatocyte [2]): 34%
- inhibition at 10 µM (Hepatocyte [3]): 71%

SMILES: O=C(/C=C/C=C/CCCCCC/C=C/c1ccc2c(c1)OCO2)N1CCCCC1 [PIPERCHABAMIDE C]
- inhibition at 30 µM (Hepatocyte [1]): 68%
- inhibition at 3 µM (Hepatocyte [2]): 42%
- inhibition at 10 µM (Hepatocyte [3]): 52%

SMILES: CC(C)CNC(=O)/C=C/CCc1ccc2c(c1)OCO2 [4,5-DIHYDROPIPERLONGUMININE]
- inhibition at 1 µM (Hepatocyte [4]): 34%
- inhibition at 30 µM (Hepatocyte [1]): 66%
- inhibition at 3 µM (Hepatocyte [2]): 43%
- inhibition at 10 µM (Hepatocyte [3]): 43%

SMILES: O=C(/C=C/C=C/CCCC/C=C/c1ccc2c(c1)OCO2)N1CCCCC1 [PIPERUNDECALIDIENE]
- inhibition at 1 µM (Hepatocyte [4]): 27%
- inhibition at 30 µM (Hepatocyte [1]): 58%
- inhibition at 3 µM (Hepatocyte [2]): 40%
- inhibition at 10 µM (Hepatocyte [3]): 49%

SMILES: C[C@]12CCC(=O)C=C1CC[C@@H]1[C@@H]2[C@@H](O)C[C@@]2(C)[C@H]1CC[C@]2(O)C(=O)CO [HYDROCORTISONE]
- inhibition in vivo at 10 mg/kg (Mus musculus [5]): 94.2%
- inhibition in vivo at 10 mg/kg (Mus musculus [6]): 97.7%
- inhibition in vivo at 10 mg/kg (Mus musculus [7]): 92.1%

SMILES: COC(=O)/C=C/C=C/c1ccc2c(c1)OCO2 [METHYL PIPERATE]
- inhibition at 30 µM (Hepatocyte [1]): 21%
- inhibition at 3 µM (Hepatocyte [2]): 18%
- inhibition at 10 µM (Hepatocyte [3]): 29%

SMILES: CC(C)CNC(=O)/C=C/C=C/CC/C=C/c1ccc2c(c1)OCO2 [RETROFRACTAMIDE A]
- inhibition at 1 µM (Hepatocyte [4]): 40%
- inhibition at 30 µM (Hepatocyte [1]): 60%
- inhibition at 3 µM (Hepatocyte [2]): 32%
- inhibition at 10 µM (Hepatocyte [3]): 35%

SMILES: O=Cc1ccc2c(c1)OCO2 [PIPERONAL]
- inhibition at 30 µM (Hepatocyte [1]): 39%
- inhibition at 3 µM (Hepatocyte [2]): 20%
- inhibition at 10 µM (Hepatocyte [3]): 23%

SMILES: CCCCC/C=C/C=C/C(=O)NCC(C)C [PELLITORIN]
- inhibition at 30 µM (Hepatocyte [1]): 42%
- inhibition at 3 µM (Hepatocyte [2]): 19%
- inhibition at 10 µM (Hepatocyte [3]): 25%

SMILES: CCCCCCCCCCCCC/C=C/C=C/C(=O)NCC(C)C
- inhibition at 1 µM (Hepatocyte [4]): 15%
- inhibition at 30 µM (Hepatocyte [1]): 43%
- inhibition at 3 µM (Hepatocyte [2]): 37%
- inhibition at 10 µM (Hepatocyte [3]): 41%

SMILES: CC(C)CNC(=O)/C=C/CCCC/C=C/c1ccc2c(c1)OCO2 [RETROFRACTAMIDE C]
- inhibition at 1 µM (Hepatocyte [4]): 30%
- inhibition at 30 µM (Hepatocyte [1]): 37%
- inhibition at 3 µM (Hepatocyte [2]): 51%
- inhibition at 10 µM (Hepatocyte [3]): 31%

SMILES: CC(C)CNC(=O)/C=C/C=C/CCCC/C=C/c1ccc2c(c1)OCO2 [RETROFRACTAMIDE B]
- inhibition at 1 µM (Hepatocyte [4]): 32%
- inhibition at 30 µM (Hepatocyte [1]): 26%
- inhibition at 3 µM (Hepatocyte [2]): 54%
- inhibition at 10 µM (Hepatocyte [3]): 51%

SMILES: O=C1C=CCCN1C(=O)CCc1ccccc1 [PIPERCHABAMIDE A]
- inhibition at 30 µM (Hepatocyte [1]): 70%
- inhibition at 3 µM (Hepatocyte [2]): 29%
- inhibition at 10 µM (Hepatocyte [3]): 32%

SMILES: CC(C)CNC(=O)/C=C/CCCCCC/C=C/c1ccc2c(c1)OCO2 [PIPERCHABAMIDE D]
- inhibition at 30 µM (Hepatocyte [1]): 37%
- inhibition at 3 µM (Hepatocyte [2]): 57%
- inhibition at 10 µM (Hepatocyte [3]): 77%

SMILES: O=C(/C=C/CCc1ccc2c(c1)OCO2)N1CCCCC1 [PIPERANINE]
- inhibition at 30 µM (Hepatocyte [1]): 53%
- inhibition at 3 µM (Hepatocyte [2]): 31%
- inhibition at 10 µM (Hepatocyte [3]): 50%

SMILES: CC(C)CNC(=O)/C=C/C=C/c1ccc2c(c1)OCO2 [PIPERLONGUMININE]
- inhibition at 1 µM (Hepatocyte [4]): 27%
- inhibition at 30 µM (Hepatocyte [1]): 66%
- inhibition at 3 µM (Hepatocyte [2]): 50%
- inhibition at 10 µM (Hepatocyte [3]): 54%

SMILES: CCCCCCC/C=C/C=C/C(=O)NCC(C)C
- inhibition at 1 µM (Hepatocyte [4]): 12%
- inhibition at 30 µM (Hepatocyte [1]): 44%
- inhibition at 3 µM (Hepatocyte [2]): 21%
- inhibition at 10 µM (Hepatocyte [3]): 31%

SMILES: CCCCC/C=C\CCCCCCCC/C=C/C=C/C(=O)NCC(C)C
- inhibition at 1 µM (Hepatocyte [4]): 10%
- inhibition at 30 µM (Hepatocyte [1]): 27%
- inhibition at 3 µM (Hepatocyte [2]): 3%
- inhibition at 10 µM (Hepatocyte [3]): 19%

SMILES: O=C(/C=C/C=C/c1ccc2c(c1)OCO2)N1CCCCC1 [PIPERINE]
- viability at 10 µM (Hepatocyte [8]): 72.4%
- inhibition in vivo at 5 mg/kg (Mus musculus [9]): 15.7%
- viability at 100 µM (L929 [10]): 92.2%
- viability at 30 µM (L929 [11]): 66.2%
- inhibition in vivo at 2.5 mg/kg (Mus musculus [12]): 0.3%
- inhibition in vivo at 2.5 mg/kg (Mus musculus [13]): 23.2%
- viability at 30 µM (Hepatocyte [14]): 76.1%
- viability at 100 µM (Hepatocyte [15]): 29.2%
- inhibition at 30 µM (Hepatocyte [1]): 68%
- inhibition in vivo at 5 mg/kg (Mus musculus [16]): 50.7%
- viability at 100 µM (Hepatocyte [17]): 84.3%
- inhibition at 3 µM (Hepatocyte [2]): 23%
- inhibition in vivo at 10 mg/kg (Mus musculus [5]): 96.1%
- inhibition at 10 µM (Hepatocyte [3]): 46%
- inhibition in vivo at 20 mg/kg (Mus musculus [18]): -2.2%
- inhibition in vivo at 10 mg/kg (Mus musculus [6]): 94.3%
- viability at 10 µM (Hepatocyte [19]): 40.6%
- viability at 30 µM (Hepatocyte [20]): 36.5%
- viability at 10 µM (L929 [21]): 64%
- inhibition in vivo at 10 mg/kg (Mus musculus [7]): 9.2%
- inhibition in vivo at 5 mg/kg (Mus musculus [22]): 51.1%

SMILES: CC(C)CNC(=O)/C=C/C=C/CCCCCCCC/C=C/c1ccc2c(c1)OCO2 [BRACHYSTAMIDE B]
- inhibition at 30 µM (Hepatocyte [1]): -6%
- inhibition at 3 µM (Hepatocyte [2]): 22%
- inhibition at 10 µM (Hepatocyte [3]): 11%

SMILES: O=C(/C=C/CCCCCC/C=C/c1ccc2c(c1)OCO2)N1CCCCC1 [PIPERCHABAMIDE B]
- inhibition at 30 µM (Hepatocyte [1]): 78%
- inhibition at 3 µM (Hepatocyte [2]): 63%
- inhibition at 10 µM (Hepatocyte [3]): 74%

SMILES: CC(C)CNC(=O)/C=C/C=C/CCCCCC/C=C/c1ccc2c(c1)OCO2 [GUINEENSINE]
- inhibition at 30 µM (Hepatocyte [1]): 12%
- inhibition at 3 µM (Hepatocyte [2]): 26%
- inhibition at 10 µM (Hepatocyte [3]): 33%

SMILES: O=C(/C=C/CCCC/C=C/c1ccc2c(c1)OCO2)N1CCCCC1 [PIPERNONALINE]
- inhibition at 30 µM (Hepatocyte [1]): 48%
- inhibition at 3 µM (Hepatocyte [2]): 17%
- inhibition at 10 µM (Hepatocyte [3]): 31%

SMILES: O=C(CCCCCC/C=C/c1ccc2c(c1)OCO2)N1CCCCC1 [PIPERROLEIN B]
- inhibition at 1 µM (Hepatocyte [4]): 20%
- inhibition at 30 µM (Hepatocyte [1]): 64%
- inhibition at 3 µM (Hepatocyte [2]): 29%
- inhibition at 10 µM (Hepatocyte [3]): 33%
